Measured values from the NIST ThermoML archive (doi:10.1016/j.jct.2015.05.001).
Several values for one entry are separate records, joined by “and”; a condition that tells them apart may be missing. Equal entries are not always repeated.

Assays:
[1] = for Triple point temperature: DTA
[2] = Molar enthalpy of transition or fusion; conditions: Crystal; DSC

Brc1ccc2c(c1)Cc1cc(Br)ccc1-2 [2,7-dibromofluorene]
[1], Crystal
Conditions	vapor or sublimation pressure
361.15 K, Calculated from knudsen effusion weight loss	9.5e-05 kPa and 9.7e-05 kPa and 9.6e-05 kPa
363.14 K, Calculated from knudsen effusion weight loss	0.000119 kPa and 0.000118 kPa
365.11 K, Calculated from knudsen effusion weight loss	0.000147 kPa and 0.000148 kPa and 0.000144 kPa
367.16 K, Calculated from knudsen effusion weight loss	0.000177 kPa and 0.000179 kPa
369.11 K, Calculated from knudsen effusion weight loss	0.000218 kPa and 0.000214 kPa and 0.000215 kPa
371.1 K, Calculated from knudsen effusion weight loss	0.000267 kPa and 0.000261 kPa
373.15 K, Calculated from knudsen effusion weight loss	0.000318 kPa and 0.000315 kPa and 0.000319 kPa
375.12 K, Calculated from knudsen effusion weight loss	0.000392 kPa and 0.000388 kPa and 0.000382 kPa
377.12 K, Calculated from knudsen effusion weight loss	0.000472 kPa and 0.000478 kPa and 0.000463 kPa
379.15 K, Calculated from knudsen effusion weight loss	0.000556 kPa and 0.00056 kPa and 0.000563 kPa
381.12 K, Calculated from knudsen effusion weight loss	0.000678 kPa and 0.000687 kPa and 0.000674 kPa
382.23 K, Closed cell (Static) method	0.000732 kPa
383.12 K, Calculated from knudsen effusion weight loss	0.000809 kPa and 0.000827 kPa and 0.000832 kPa
384.26 K, Closed cell (Static) method	0.000874 kPa
386.08 K, Closed cell (Static) method	0.001029 kPa
388.21 K, Closed cell (Static) method	0.001254 kPa
390.11 K, Closed cell (Static) method	0.001472 kPa
392.14 K, Closed cell (Static) method	0.001751 kPa
394.16 K, Closed cell (Static) method	0.002104 kPa
396.08 K, Closed cell (Static) method	0.002489 kPa
398.07 K, Closed cell (Static) method	0.002922 kPa

Conditions	Triple point temperature [K]
[1], Crystal	438.79

Conditions	Molar enthalpy of transition or fusion [kJ/mol]
[2]	22.7

Brc1ccc2c(c1)Cc1ccccc1-2 [2-bromofluorene]
[1]
Conditions	vapor or sublimation pressure
327.17 K, Crystal, Calculated from knudsen effusion weight loss	0.000118 kPa and 0.000119 kPa
329.13 K, Crystal, Calculated from knudsen effusion weight loss	0.00015 kPa and 0.000148 kPa
331.09 K, Crystal, Calculated from knudsen effusion weight loss	0.000186 kPa and 0.000183 kPa
333.16 K, Crystal, Calculated from knudsen effusion weight loss	0.000223 kPa and 0.000225 kPa and 0.000229 kPa
335.14 K, Crystal, Calculated from knudsen effusion weight loss	0.00028 kPa and 0.000275 kPa and 0.000279 kPa
337.11 K, Crystal, Calculated from knudsen effusion weight loss	0.000347 kPa and 0.000346 kPa and 0.000343 kPa
339.16 K, Crystal, Calculated from knudsen effusion weight loss	0.000417 kPa and 0.000416 kPa and 0.000425 kPa
341.14 K, Crystal, Calculated from knudsen effusion weight loss	0.000515 kPa and 0.000501 kPa
343.1 K, Crystal, Calculated from knudsen effusion weight loss	0.000627 kPa and 0.000626 kPa and 0.000634 kPa
345.16 K, Crystal, Calculated from knudsen effusion weight loss	0.000749 kPa and 0.000747 kPa and 0.000758 kPa
347.09 K, Crystal, Calculated from knudsen effusion weight loss	0.000928 kPa and 0.000929 kPa and 0.000909 kPa
349.09 K, Crystal, Calculated from knudsen effusion weight loss	0.00112 kPa and 0.001125 kPa and 0.001127 kPa
350.8 K, Crystal, Closed cell (Static) method	0.001323 kPa
352.79 K, Crystal, Closed cell (Static) method	0.001593 kPa
354.74 K, Crystal, Closed cell (Static) method	0.001921 kPa
356.73 K, Crystal, Closed cell (Static) method	0.002274 kPa
358.7 K, Crystal, Closed cell (Static) method	0.002726 kPa
360.67 K, Crystal, Closed cell (Static) method	0.003206 kPa
362.65 K, Crystal, Closed cell (Static) method	0.003848 kPa
364.63 K, Crystal, Closed cell (Static) method	0.00452 kPa
366.6 K, Crystal, Closed cell (Static) method	0.005367 kPa
368.56 K, Crystal, Closed cell (Static) method	0.006271 kPa
370.56 K, Crystal, Closed cell (Static) method	0.007492 kPa
372.53 K, Crystal, Closed cell (Static) method	0.008716 kPa
374.47 K, Metastable liquid, Closed cell (Static) method	0.012 kPa
374.5 K, Crystal, Closed cell (Static) method	0.0103 kPa
376.47 K, Crystal, Closed cell (Static) method	0.01202 kPa
376.47 K, Metastable liquid, Closed cell (Static) method	0.01362 kPa
378.44 K, Crystal, Closed cell (Static) method	0.01403 kPa
378.44 K, Metastable liquid, Closed cell (Static) method	0.01541 kPa
380.4 K, Crystal, Closed cell (Static) method	0.01634 kPa
380.4 K, Metastable liquid, Closed cell (Static) method	0.01749 kPa
382.39 K, Metastable liquid, Closed cell (Static) method	0.01992 kPa
384.36 K, Metastable liquid, Closed cell (Static) method	0.02244 kPa
386.34 K, Metastable liquid, Closed cell (Static) method	0.02529 kPa
388.31 K, Metastable liquid, Closed cell (Static) method	0.02854 kPa
390.28 K, Closed cell (Static) method, Liquid	0.03201 kPa
392.25 K, Closed cell (Static) method, Liquid	0.03602 kPa
394.21 K, Closed cell (Static) method, Liquid	0.04022 kPa
396.18 K, Closed cell (Static) method, Liquid	0.04506 kPa
398.13 K, Closed cell (Static) method, Liquid	0.05046 kPa
400.11 K, Closed cell (Static) method, Liquid	0.05625 kPa
402.06 K, Closed cell (Static) method, Liquid	0.0628 kPa
404.05 K, Closed cell (Static) method, Liquid	0.06988 kPa
405.99 K, Closed cell (Static) method, Liquid	0.0774 kPa
407.97 K, Closed cell (Static) method, Liquid	0.08499 kPa
409.95 K, Closed cell (Static) method, Liquid	0.0938 kPa
411.9 K, Closed cell (Static) method, Liquid	0.1045 kPa
413.88 K, Closed cell (Static) method, Liquid	0.1164 kPa
415.84 K, Closed cell (Static) method, Liquid	0.1264 kPa
417.81 K, Closed cell (Static) method, Liquid	0.1398 kPa
419.77 K, Closed cell (Static) method, Liquid	0.1534 kPa

Conditions	Triple point temperature [K]
[1], Crystal	387.39

Conditions	Molar enthalpy of transition or fusion [kJ/mol]
[2]	17
